Tests used:
[1] = in some, but not all, studies; cited from earlier work
[2] = tested on: patients with fibromyalgia; assay: Flupirtine treatment of patients with fibromyalgia; type: in vivo
Source text: Flupirtine is an analgesic that has been used in Europe to treat the pain associated with surgery, cancer, trauma, and liver disease. It acts via the central nervous system through non-opite pain pathways, possibly involving the thalamus or spinal pain pathways.

[3] = cited from earlier work

In the case of CCOC(=O)Nc1ccc(NCc2ccc(F)cc2)nc1N [flupirtine, 2-amino-3-carbethoxyamino-6-(4-fluorobenzylamino)-pyridine], the “effectiveness in relieving pain compared with opiates” value [1] is given as “as effective as opiates”, the “analgesic action compared with opiates” value ([2]; patients with fibromyalgia and related conditions) is given as “roughly comparable to the effect produced by opiates” and the “effect on chronic and severe body pain” value ([2]; some patients with fibromyalgia, also where high doses of opiates, NSAIDs and placquenil fail) is given as “completely eliminating the chronic and severe body pain”. For the same compound, the withdrawal symptoms ([3]; abrupt discontinuation of administration) was “does not produce withdrawal symptoms”, the sedation ([3]; compared with opiate drugs) was “less sedating than opiate drugs” and the addiction and abuse ([3]; compared with opiates, no reports of abuse) was “not addictive”. For the same compound, the “tolerance to analgesic effects” value ([3]; human, in vivo) was “do not acquire a tolerance”, the reported side effects ([3]; relatively safe at dosages lower than 600 mg per day) was “dizziness, drowsiness, pruritus, dry mouth, and, less frequently, nausea, depression, sleep disturbance, and headache” and the cardiovascular side effects ([3]; unlike opiates) was “not associated with cardiovascular side effects”. For the same compound, the muscle relaxant properties ([3]; unlike opiates) was “exhibits muscle relaxant properties”.

From patent US6610324B2, “Flupirtine in the treatment of fibromyalgia and related conditions” (The McLean Hospital Corporation, priority 1999, dated 2003)
